Test results: patent US11466036B2, “Borate of azetidine derivative” (Chia Tai Tianqing Pharmaceutical Group Co., Ltd., priority 2018, dated 2022)

How the values were obtained:
[1] = Liver microsomal stability test, rat; type: in vitro ADME, SD rats; conditions: SD; rat (R) liver microsomes; read-out: Liver microsomal stability (T1/2, min)
Procedure: (§1) Experimental Example 2: Liver Microsomal Stability Test for Compounds
(§2) Test compounds were each co-incubated with liver microsomes from CD-1 mice, SD rats, and humans to evaluate the stability of the test compounds.
(§3) Preparation of test compound solution samples: a 10 mM DMSO solution of the example compound (5 μL) was added to a mixed solvent of DMSO (45 μL), methanol and water (450 μL, volume ratio of methanol and water was 1:1) to prepare a 100 μM test compound solution; 50 μL of the 100 μM test compound solution was added to 450 μL of 100 mM potassium phosphate buffer to give a 10 μM test compound solution.
(§4) The 10 μM test compound solution was preincubated with microsomes of three species (human, rat and mouse, respectively) for 10 minutes, and then reduced nicotinamide adenine dinucleotide phosphate (NADPH) regeneration system working solution was added to the incubation plate according to each time point to initiate the reaction, and finally at 0, 5, 10, 20, 30 and 60 minutes, stop solution (100% ACN) was added to the reaction plate to stop the reaction. The test compounds were determined using LC-MS/MS method.

[2] = Liver microsomal stability test, human; type: in vitro ADME; conditions: human (H) liver microsomes; read-out: Liver microsomal stability (T1/2, min)
Procedure: as §1, §2, §3, §4

[3] = tested on: MM1.S cells; test: In vitro anti-proliferation experiment for MM1.S cells (CellTiter-Glo); type: cell-based; conditions: Homo sapiens, 48 h, 2 days incubation, 0.3 nM-2000 nM
Procedure: In Vitro Anti-Proliferation Experiment for MM1.S Cells
In this experiment, the effect of compounds on inhibiting cell proliferation was investigated by determining their effect on cell activity in vitro in the tumor cell line MM1.S.
MM1.S cells were seeded into a black 96-well cell culture plate at a density of 7,000 cells per well, and the plates were then incubated overnight in an incubator at 37° C., 5% CO2 and 100% relative humidity. Test compounds were added to the cell culture wells at a concentration (0.3 nM-2000 nM) and the plate was then put back into the incubator with vehicle control (DMSO added, no test compound) and blank control set. The plate was incubated for 2 days in an incubator at 37° C., 5% CO2 and 100% relative humidity. Samples were processed using a standard method of the Promega CellTiter-Glo luminescence cell activity detection kit (Promega-G7571) and luminescence signals were detected on a SpectraMax i3× of Molecular Devices plate reader. The inhibition rate of the test compound was calculated using the following formula: […]

[4] = Liver microsomal stability test, mouse; type: in vitro ADME, CD-1 mice; conditions: CD-1; mouse (M) liver microsomes; read-out: Liver microsomal stability (T1/2, min)
Procedure: as §1, §2, §3, §4

[5] = Stability experiment (solid sample in stability boxes, content by HPLC); type: physicochemical
Procedure: Experimental Example 4: Stability Experiment
About 50 mg of a sample was placed in a clean disposable petri dish and spread into a thin layer. The petri dish was covered with aluminum foil paper which was pricked with several small holes. The sample, in duplicate, was placed in stability boxes of 25° C.±2° C./60% RH±5% RH and 40° C.±2° C./75% RH±5% RH, respectively, and sampled at the planned time points, and the content of the compound was determined using the HPLC method, and the results are shown in Table 9.

[6] = tested on: MDR1; test: Cell membrane permeability test on MDR1-MDCK II cells; type: in vitro ADME; conditions: dog; for efflux ratio at 150 min, 2 μM: MDCK-MDR1, pH 7.4, Papp B to A/Papp A to B; for Papp A→B at 150 min, 2 μM / Papp B→A at 150 min, 2 μM: MDCK-MDR1, pH=7.4
Procedure: Experimental Example 3: Cell Membrane Permeability Test for Compounds
Test compounds were evaluated for cell membrane permeability on MDR1-MDCK II cells.
Test compounds (10 mM DMSO solution of compound) were each diluted with transfer buffer (HBSS with 10 mM Hepes, pH=7.4) and formulated into samples at a final concentration of 2 μM, and then bidirectional (A-B and B-A) administration was performed. After administration, the cell plate was incubated for 150 minutes in an incubator at 37° C., 5% CO2 and saturated humidity. After the 150 minutes of incubation, samples were collected and the concentrations of test compounds in the transfer samples were semi-quantitatively determined using LC-MS/MS method.

| Compound | half-life [1] [min] | half-life [2] [min] | IC50 [3] [nM] | half-life [4] [min] | efflux ratio at 150 min, 2 μM [6] | Papp A→B at 150 min, 2 μM [6] [×10⁻⁶ cm/s] | Papp B→A at 150 min, 2 μM [6] [×10⁻⁶ cm/s] | further results |
| --- | --- | --- | --- | --- | --- | --- | --- | --- |
| CC(C)C[C@H](NC(=O)CNC(=O)[C@@H]1CCN1c1ccc(F)cc1)B(O)O [Compound 1-9] | 42.1 | 74.3 | 5.8 | 43.5 | – | – | – | – |
| CC(C)C[C@H](NC(=O)CNC(=O)[C@@H]1CCN1c1ncc(F)cc1F)B(O)O [Compound 2-8] | – | – | 24 | – | – | – | – | – |
| CC(C)C[C@H](NC(=O)CNC(=O)[C@@H]1CCN1c1ccc(F)cc1F)B1OC(=O)[C@H](CC(=O)O)O1 [Compound I-1] | – | – | 13 | – | – | – | – | content of the compound ([5]; 25° C./60% RH, Day 0): 98.6%; content of the compound ([5]; 25° C./60% RH, Day 7): 97.8%; content of the compound ([5]; 25° C./60% RH, Day 14): 100%; content of the compound ([5]; 25° C./60% RH, Day 21): 100%; content of the compound ([5]; 25° C./60% RH, Day 28): 100%; content of the compound ([5]; 40° C./75% RH, Day 0): 98.6%; content of the compound ([5]; 40° C./75% RH, Day 7): 99.1%; content of the compound ([5]; 40° C./75% RH, Day 14): 98.5%; content of the compound ([5]; 40° C./75% RH, Day 21): 100%; content of the compound ([5]; 40° C./75% RH, Day 28): 100% |
| CC(C)C[C@H](NC(=O)CNC(=O)[C@@H]1CCN1c1ccc(C#N)cc1F)B(O)O (single isomer, unassigned) [Compound 3-7] | – | – | 90.6 | – | – | – | – | – |
| CC(C)C[C@H](NC(=O)CNC(=O)[C@@H]1CCN1c1nc(C(F)(F)F)cs1)B(O)O [Compound 2-9] | 26.5 | 75 | 24.2 | 37.7 | 9.33 | 0.24 | 2.24 | – |
| CC(C)C[C@H](NC(=O)CNC(=O)[C@@H]1CCN1c1ccc(F)cc1F)B(O)O (single isomer, unassigned) [Compound 4-9] | 43.1 | 67.4 | 1 | 67.4 | 19.3 | 0.38 | 7.32 | – |
